According to ChEMBL document CHEMBL3232986, “Identification of a novel series of potent HCV NS5B Site I inhibitors” (Bioorg Med Chem Lett, 2014):

Legend:
[1] = Half life in monkey liver microsomes; format: ADME, Macaca mulatta; conditions: rhesus monkey
[2] = Half life in dog liver microsomes; format: ADME, Canis lupus familiaris
[3] = Inhibition of HCV genotype 1b wild type NS5B polymerase using biotinylated oligo dT12 primer as substrate after 4 hrs in presence of [3H]UTP; parameters: species or system Hepatitis C virus subtype 1b
Hepatitis C virus = experiment: Antiviral activity against HCV genotype 1a H77c infected in human HuH7 cells after 3 days by luciferase reporter gene assay; format: functional, cell-based, Hepacivirus hominis; conditions: Huh-7, 72 h
[4] = Cytotoxicity against human HuH7 cells after 4 hrs by CellTitre-Blue assay; format: cell-based, Huh-7
[5] = Inhibition of CYP (unknown origin); format: ADME; conditions: human
Liver microsome = experiment: Metabolic stability in human liver microsomes; format: ADME

half-life [1] [min] | half-life [2] [min] | IC50 [3] [nM] | EC50 (Hepatitis C virus) [nM] | inhibition (INH) [5] | Stability (Liver microsome) | SMILES | CC50 at 4 h [4] [nM]
24 | 22 | 3 | 12 |  |  | COc1ccc2c(c1)[C@@H]1C[C@]1(C(=O)N1CC34CCC3(CN(C(=O)N(C)C)C4)C1)Cn1c-2c(C2CCCCC2)c2ccc(C(=O)NS(=O)(=O)C(C)C)cc21 (some centres not stated) | 16000
 |  | 3 | 6 | Active |  | COc1ccc2c(c1)[C@@H]1C[C@]1(C(=O)N1CC34CCC3(C1)CN(S(=O)(=O)C(C)C)C4)Cn1c-2c(C2CCCCC2)c2ccc(C(=O)NS(=O)(=O)N(C)C)cc21 (some centres not stated) | 5000
 |  |  | 15 |  | Unstable | CCOCCN1CC23CCC2(C1)CN(C(=O)[C@]12C[C@H]1c1cc(OC)ccc1-c1c(C4CCCCC4)c4ccc(C(=O)NS(=O)(=O)C(C)C)cc4n1C2)C3 (some centres not stated) | 10000
